Article PMC12274739, “Differential substrate degradation by super-degron: EGFP in wild-type mouse cells, PD-1 requires CRBN humanization” (iScience, 2025)
Read-outs that look alike come from different tables or passages of the source. Residues, ends and D or L forms follow the SMILES beside them. *: point of attachment. Cbz = O=C(OCc1ccccc1)*

How the values were obtained:
[1] = molecular target: EGFP-ZFP91 (UniProt P42212+Q8C7D2, F64L/H231L/INS1V/S65T); format: cell-based, mouse; conditions: CrbnI391V/I391V mESCs; for Bottom, EGFP-ZFP91 / LogDC50, EGFP-ZFP91 / DC50: stable, Figure 5E; for DC50: read-out: DC50, EGFP-ZFP91
[2] = molecular target: EGFP-IKZF (UniProt P42212+Q8C7D2, F64L/H231L/INS1V/S65T); format: cell-based, mouse; conditions: for Bottom, EGFP-IKZF / LogDC50, EGFP-IKZF / DC50: stable; for DC50: read-out: DC50, EGFP-IKZF
[3] = molecular target: EGFP-SD (Aequorea victoria, UniProt P42212, F64L/H231L/S65T); format: cell-based, mouse; conditions: stable; for DC50: read-out: DC50, EGFP-SD
[4] = tested on: degradation of SD-tagged EGFP; assay: Inhibition of IBR-induced degradation of SD-EGFP or EGFP-SD in B6J-S1 by pathway inhibitors; format: cell-based, mouse; conditions: B6J-S1, IBR fixed at 1 μM, 24 h
[5] = in vivo; cited from earlier work
[6] = CrbnI391V/I391V mESCs, Figure 5E

SMILES: Cc1nc2cccc(N)c2c(=O)n1C1CCC(=O)NC1=O (centres unmarked) [AVA, avadomide]
- Bottom, EGFP-ZFP91 [1]: 0.1629
- LogDC50, EGFP-ZFP91 [1]: -1.296 μM
- DC50 [1]: 50.5 nM
- Bottom, EGFP-IKZF ([2]; B6J-S1 mESCs, Figure 5D): 0.07112
- LogDC50, EGFP-IKZF ([2]; B6J-S1 mESCs, Figure 5D): -0.9014 μM
- Bottom, EGFP-IKZF [2, 6]: 0.1373
- LogDC50, EGFP-IKZF [2, 6]: -1.87 μM
- EGFP-IKZF amount compared to other reagents ([2]; mESCs, 0.1 and 1 μM): significantly reduced
- DC50 ([2]; B6J-S1 mESCs, Figure 5D): 126 nM
- DC50 [2, 6]: 13.5 nM
- Bottom, EGFP-SD ([3]; B6J-S1 mESCs, Figure 5D): 0.01996
- LogDC50, EGFP-SD ([3]; B6J-S1 mESCs, Figure 5D): -2.1 μM
- Bottom, EGFP-SD [3, 6]: 0.06758
- LogDC50, EGFP-SD [3, 6]: -2.187 μM
- DC50 ([3]; B6J-S1 mESCs, Figure 5D): 7.94 nM
- DC50 [3, 6]: 6.5 nM

SMILES: CC(C)C[C@@H](C=O)NC(=O)[C@H](CC(C)C)NC(=O)[C@H](CC(C)C)NC(=O)OCc1ccccc1 [MG-132] (Cbz-Leu-Leu-Leu-aldehyde)
- effect on IBR-induced EGFP degradation [4]: inhibited in a concentration-dependent manner

SMILES: NS(=O)(=O)OC[C@@H]1C[C@@H](n2ccc3c(N[C@H]4CCc5ccccc54)ncnc32)C[C@@H]1O [MNL4924, pevonedistat]
- effect on IBR-induced EGFP degradation [4]: inhibited in a concentration-dependent manner

SMILES: N#Cc1ccc(N2CCN(Cc3ccc(COc4cccc5c4CN([C@H]4CCC(=O)NC4=O)C5=O)cc3)CC2)c(F)c1 [MZG, mezigdomide]
- degradation of EGFP-ZFP91 [1]: efficiently degraded
- Bottom, EGFP-ZFP91 [1]: 0.03183
- LogDC50, EGFP-ZFP91 [1]: -3.343 μM
- DC50 [1]: 0.454 nM
- Bottom, EGFP-IKZF ([2]; B6J-S1 mESCs, Figure 5D): 0.385
- LogDC50, EGFP-IKZF ([2]; B6J-S1 mESCs, Figure 5D): -1.952 μM
- Bottom, EGFP-IKZF [2, 6]: 0.1226
- LogDC50, EGFP-IKZF [2, 6]: -3.265 μM
- DC50 ([2]; B6J-S1 mESCs, Figure 5D): 11.2 nM
- DC50 [2, 6]: 0.543 nM
- Bottom, EGFP-SD ([3]; B6J-S1 mESCs, Figure 5D): 0.0126
- LogDC50, EGFP-SD ([3]; B6J-S1 mESCs, Figure 5D): -3.875 μM
- Bottom, EGFP-SD [3, 6]: 0.0164
- LogDC50, EGFP-SD [3, 6]: -4.187 μM
- DC50 ([3]; B6J-S1 mESCs, Figure 5D): 0.133 nM
- DC50 [3, 6]: 0.0651 nM

SMILES: CCOC(=O)c1ccc(N2NC(=O)/C(=C/c3ccc([N+](=O)[O-])o3)C2=O)cc1 [PYR-41]
- effect on IBR-induced EGFP degradation [4]: did not affect the degradation of EGFP

SMILES: NS(=O)(=O)OC[C@H]1C[C@@H](Nc2ccnc3cc(-c4cccc(SC(F)(F)F)c4)nn23)[C@H](O)[C@@H]1O [TAK-243]
- effect on IBR-induced EGFP degradation [4]: inhibited in a concentration-dependent manner

SMILES: CCN(CC)CCCC(C)Nc1ccnc2cc(Cl)ccc12 (centres unmarked) [chloroquine]
- effect on IBR-induced EGFP degradation [4]: but not by chloroquine

SMILES: CC[C@H](C(=O)N1CCCC[C@H]1C(=O)O[C@H](CCc1ccc(OC)c(OC)c1)c1ccccc1OCC(=O)NCCCCCCOc1cccc2c1C(=O)N(C1CCC(=O)NC1=O)C2=O)c1cc(OC)c(OC)c(OC)c1 (some centres unmarked) [dTAG-13]
- blood-brain barrier (BBB) passage [5]: cannot cross the blood-brain barrier
